In brackets after ≈: the same amount, converted by molar mass.
What was measured:
[1] = system: MDA-MB-435 cells; experiment: Apoptosis by DAPI staining (Example 8); type: cell-based, human; conditions: Homo sapiens, 72 h; MDA-MB-435; 2% serum; DAPI staining at three day treatment
Protocol: (§1) MDA-MB-435 and MCF-7 cells at 1.5×10^5/well in 12 well plates for apoptosis and 1.5×10^4/well in 96 well plates for DNA synthesis arrest were incubated overnight in culture media and treated with α-tocopherol, α-tocotrinel, compound 1, 6-0-carboxymethyl alpha-tocotrienol (6-0-CM-α-T, 44), and vitamin E succinate (VES) at different concentrations in experimental media (2% serum for MDA-MB-435 cells and 5% serum for MCF-7 cells). DNA synthesis arrest was determined by ^3H-uptake at one day treatment and apoptosis was detected by DAPI staining at three day treatment. EC50 was calculated as the dosage of test compounds that gave 50% growth inhibition.

[2] = system: MCF-7 cells; experiment: Apoptosis by DAPI staining (Example 8); type: cell-based, human; conditions: Homo sapiens, MCF7, 72 h, 5% serum, DAPI staining at three day treatment
Protocol: as §1

[3] = system: T47D; experiment: Bioassay for apoptosis (apoptotic EC50); type: cell-based; conditions: Homo sapiens, unit inferred
Method in brief: (§2)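 Apoptosis was quantified microscopically after 1, 2 or 3 days of exposure to test compounds (0.01–20 μg/mL). Cells showing condensed or fragmented nuclear chromatin on DAPI staining, or fragmented DNA by TUNEL, counted as apoptotic.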

[4] = system: PREC; experiment: Bioassay for apoptosis (apoptotic EC50); type: cell-based; conditions: Homo sapiens, unit inferred
Method in brief: as §2

[5] = system: HMEC; experiment: Bioassay for apoptosis (apoptotic EC50); type: cell-based; conditions: Homo sapiens, unit inferred
Method in brief: as §2

[6] = system: MCF-10A; experiment: Bioassay for apoptosis (apoptotic EC50); type: cell-based; conditions: Homo sapiens, unit inferred
Method in brief: (§3)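 Overnight-adhered cells were treated for 1–3 days with compounds at 0.01 to 20 μg/mL. Percent apoptosis was scored microscopically from DAPI-stained chromatin condensation/fragmentation and/or TUNEL detection of DNA 3′-OH ends.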

[7] = system: MDA-MB-435 cells; experiment: DNA synthesis arrest by 3H-uptake (Example 8); type: cell-based, human; conditions: Homo sapiens; MDA-MB-435; 2% serum; 3H-uptake at one day treatment
Protocol: as §1

[8] = system: MCF-7 cells; experiment: DNA synthesis arrest by 3H-uptake (Example 8); type: cell-based, human; conditions: Homo sapiens, MCF7, 5% serum, 3H-uptake at one day treatment
Protocol: as §1

[9] = system: PC-3; experiment: Bioassay for apoptosis (apoptotic EC50); type: cell-based, human; conditions: PC-3; unit not given; in µg/mL
Method in brief: as §3

[10] = system: HT-29; experiment: Bioassay for apoptosis (apoptotic EC50); type: cell-based, human; conditions: Homo sapiens, unit inferred
Method in brief: as §2

[11] = system: ME-180; experiment: Bioassay for apoptosis (apoptotic EC50); type: cell-based, human; conditions: ME-180; unit not given; in µg/mL
Method in brief: as §3

[12] = system: DU-145; experiment: Bioassay for apoptosis (apoptotic EC50); type: cell-based, human; conditions: Homo sapiens, unit inferred
Method in brief: as §2

[13] = system: DLD-1; experiment: Bioassay for apoptosis (apoptotic EC50); type: cell-based, human; conditions: Homo sapiens, unit inferred
Method in brief: as §2

[14] = system: HL-60; experiment: Bioassay for apoptosis (apoptotic EC50); type: cell-based, human; conditions: HL-60; unit not given; in µg/mL
Method in brief: as §3

[15] = system: MCF-7; experiment: Bioassay for apoptosis (apoptotic EC50); type: cell-based, human; conditions: MCF-7; unit not given; in µg/mL
Method in brief: as §3

[16] = system: Jurkat; experiment: Bioassay for apoptosis (apoptotic EC50); type: cell-based, human; conditions: Homo sapiens, unit inferred
Method in brief: as §2

[17] = system: A-549; experiment: Bioassay for apoptosis (apoptotic EC50); type: cell-based, human; conditions: Homo sapiens, A549, unit inferred
Method in brief: as §2

[18] = system: MDA-MB-231; experiment: Bioassay for apoptosis (apoptotic EC50); type: cell-based, human; conditions: MDA-MB-231; unit not given; in µg/mL
Method in brief: as §3

[19] = system: RL-95-2; experiment: Bioassay for apoptosis (apoptotic EC50); type: cell-based, human; conditions: Homo sapiens, RL95-2, RL-95-2; unit inferred
Method in brief: as §3

[20] = system: C-170; experiment: Bioassay for apoptosis (apoptotic EC50); type: cell-based, human; conditions: Homo sapiens, C170, C-170; unit inferred
Method in brief: as §3

[21] = system: LnCaP; experiment: Bioassay for apoptosis (apoptotic EC50); type: cell-based, human; conditions: Homo sapiens, unit inferred
Method in brief: as §3

[22] = system: MDA-MB-435; experiment: Bioassay for apoptosis (apoptotic EC50); type: cell-based, human; conditions: MDA-MB-435; unit not given; in µg/mL
Method in brief: as §3

[23] = system: Fas/Fas ligand signaling pathway; experiment: Fas/Fas ligand apoptotic signaling in Fas resistant tumor cells; type: cell-based, human
Text: Activated Fas/Fas ligand signaling may lead to rapid cell death by apoptosis. Thus, for tumor cells to escape death by Fas/Fas ligand, they must inactivate this most important apoptotic pathway. The mechanism for inactivation of the Fas/Fas ligand signaling pathway by tumor cells varies; however, many tumor cells down regulate the expression of Fas receptor and Fas ligand on their membranes.

[24] = system: Fas ligand on the membrane of LNCaP prostate cells; experiment: Fas ligand expression on cell membrane; type: cell-based
[25] = Protocol: Prior to conducting the preclinical chemotherapeutic studies, compound 1 is assayed in non-tumor Balb/c female mice in an effort to establish the maximum tolerated dose. Compound 1 is dissolved in 100% ethanol to establish a stock solution (2 grams of compound 1 in 5 mls of 100% ethanol) and diluted in peanut oil (non vitamin E supplemented) to yield 20, 10, and 5 mg/0.1 ml. RRR-α-tocopherol succinate (VES; the succinate moiety is attached to RRR-α-tocopherol via an ester linkage) was solubilized and diluted as described above to yield 20 mg/0.1 ml/gavage, serving as an additional control. A total of 30 Balb/c female mice were placed into 6 groups (5 mice/group) and supplemented by gavage with compound 1 daily for a total of 23 days. Group 1 mice were non treated and served a s control; group 2 mice were the vehicle control group and received 0.1 ml of vehicle (ethanol+peanut oil equivalent to treatment groups)/mouse/day for a total of 23 days, […] of VES daily for a total of 23 days. Treatment groups […] were gavaged daily for 23 days with 5, 10, and 20 mgs of compound 1.

In the case of Cc1c(C)c2c(c(C)c1OCC(=O)O)CC[C@@](C)(CCC[C@H](C)CCC[C@H](C)CCCC(C)C)O2 [Compound 1, 2,5,7,8-tetramethyl-(2R-(4R,8R,12-trimethyltridecyl)chroman-6-yloxy)acetic acid], the EC50 [1] is reported as 30 µM, the EC50 [2] is reported as 36 µM and the EC50 [3] is reported as > 20 µg/mL. For the same compound, the EC50 [4] was > 20 µg/mL, the EC50 [5] was > 20 µg/mL and the EC50 [6] was > 20 µg/mL. For the same compound, the EC50 [7] was 15 µM, the EC50 [8] was 20 µM and the “apoptotic EC50” value [9] was 5-10. The EC50 [10] was 10 to 20 µg/mL (≈ 20.5 to 40.9 µM), the “apoptotic EC50” value [11] was 1-5 and the EC50 [12] was 5 to 10 µg/mL (≈ 10.2 to 20.5 µM). For the same compound, the EC50 [13] was 10 to 20 µg/mL (≈ 20.5 to 40.9 µM), the “apoptotic EC50” value [14] was 5-10 and the “apoptotic EC50” value [15] was 5-10. For the same compound, the EC50 [16] was 10 to 20 µg/mL (≈ 20.5 to 40.9 µM), the EC50 [17] was 10 to 20 µg/mL (≈ 20.5 to 40.9 µM) and the “apoptotic EC50” value [18] was 5-10. The EC50 [19] was 10 to 20 µg/mL (≈ 20.5 to 40.9 µM), the EC50 [20] was 10 to 20 µg/mL (≈ 20.5 to 40.9 µM) and the EC50 [21] was 5 to 10 µg/mL (≈ 10.2 to 20.5 µM). For the same compound, the “apoptotic EC50” value [22] was 5-10, the Fas receptor localisation ([23]; Fas signaling resistant human breast cancer cells) was “transported from the cytoplasm to the membrane” and the “Fas/Fas ligand sensitivity of resistant tumor cells” value ([23]; Fas/Fas ligand resistant tumor cells) was “induce Fas/Fas ligand resistant tumor cells to become Fas/Fas ligand sensitive”. For the same compound, the “anti-Fas triggered apoptosis, co-treatment” value ([23]; human breast and prostate cancer cells, co-treated versus separately) was “synergistic”, the “expression of Fas ligand on the membrane” value [24] was “enhance the expression of Fas ligand” and the toxicity upon autopsy ([25]; at completion of the MTD studies) was “no evidence of toxicity”. For the same compound, the “weights of the mice versus VES treated, untreated and vehicle treated controls” value ([25]; mouse, in vivo) was “no significant difference”.
